Literature values in PMC9311059, “P‐Glycoprotein and Breast Cancer Resistance Protein Transporter Inhibition by Cyclosporine and Quinidine on the Pharmacokinetics of Oral Rimegepant in Healthy Subjects” (Clinical Pharmacology in Drug Development, 2022).

Conditions: oral midazolam coadministered with cyclosporine; cited from earlier work

**Q.** With `Cc1ncc2n1-c1ccc(Cl)cc1C(c1ccccc1F)=NC2` [midazolam] as the molecule, how does the “change in midazolam Cmax” value read?
**A.** Its value is “no meaningful change”.

**Q.** And the “increase in midazolam AUC” value?
**A.** Its value is 46%.
